# Reference: US9241964B2, “Composition from Sphaeranthus indicus and Garcinia mangostana for the control of metabolic syndrome” (LAILA NUTRACEUTICALS, priority 2009, dated 2016)
# System: Matrix Metalloproteinase-1 (MMP-1)
# Assay: Inhibition of MMP-1 production in PMA induced A2058 cells (ELISA)
# Format: cell-based
# Conditions: PMA induced A2058 human melanoma cells, 24 h, supernatant ELISA
# Method: A2058 cells were induced with 50 nM PMA in absence or presence of different concentrations of LI/DD-II/054A/01 for 24 h as indicated. Secreted MMP-1 concentration in the cell free culture supernatants was measured using MMP-1 ELISA Development Kit (R&D System, Minneapolis, Minn., USA). The MMP-1 concentration in culture supernatants was estimated quantitatively from the standard curve generated using known concentrations of MMP-1. Percentage of MMP-1 inhibition at each concentration of test compound was calculated from the formula: {(Conc. of MMP-1 in PMA induced−Conc. of MMP-1 in the test well)×100}[…]Conc. of MMP-1 in PMA induced wells.
# MMP-1 was evaluated in PMA induced human melanoma cells, A2058. Briefly, the cells were cultured in Dulbecco's Modified Eagles Medium (DMEM) with 2 mM Glutamine, 100 U/mL penicillin, […] streptomycin and 10% fetal bovine serum (Hyclone, Logan, Utah). Five thousand cells per well were seeded into a 96-well cell culture plate (Corning, USA) one day before the experiment. The culture media was replaced with fresh DMEM containing 10% fetal bovine serum. […] The MMP-1 concentration in culture supernatant was estimated quantitatively by interpolating the optical densities into the standard curve generated from known concentrations of MMP-1. […]
structure (smiles),measurement,value
"C=C1C(=O)O[C@H]2C3=C(C)CCC[C@]3(C)CC[C@@]12O [LI054A01, 7-α-hydroxy-4,11(13)-eudesmadien-12,6-olide]",IC50 of MMP-1,1.2 µg/mL
